Assay results published in patent publication US20030124585A1, “Type II gonadotropin-releasing hormone receptor and polynucleotides encoding therefor” (Medical Research Council, priority 2000, published 2003).
Where two headings read alike, the source gives them in different places. Square brackets hold non-standard residues; d marks the D form. Peptide text beside a SMILES is read from it. pGlu = O=C1CC[C@@H](C(=O)O)N1

How the values were obtained:
[1] = biological target: T1, marmoset Type II GnRH receptor (Callithrix jacchus, UniProt Q95MG6); assay: Phospho-MAP kinase assay, p38α activation in transfected COS-7 cells; type: cell-based; details: 100 nM, FIG. 8c
T1 construct: Full length marmoset Type II GnRH receptor was produced by PCR; expressed in transfected cells; host or cells: COS-7 cells, transient transfection (Superfect), plasmid pcDNA3.1+
T1 sequence (Q95MG6 1-380): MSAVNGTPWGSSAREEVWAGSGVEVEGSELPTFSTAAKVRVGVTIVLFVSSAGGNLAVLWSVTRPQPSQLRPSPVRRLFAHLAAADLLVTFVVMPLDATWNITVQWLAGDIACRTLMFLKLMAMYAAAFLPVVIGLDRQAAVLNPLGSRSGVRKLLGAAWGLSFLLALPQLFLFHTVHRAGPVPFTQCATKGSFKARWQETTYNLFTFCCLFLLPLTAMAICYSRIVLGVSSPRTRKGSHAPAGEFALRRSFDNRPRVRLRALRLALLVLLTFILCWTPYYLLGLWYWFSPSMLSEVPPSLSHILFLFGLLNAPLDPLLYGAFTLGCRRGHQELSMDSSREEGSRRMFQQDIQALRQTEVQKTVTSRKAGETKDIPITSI
Protocol: (§1) Cell culture and transfection. COS-7 cells were cultured as previously described (20, 21). Transient transfections of COS-7 cells with human Type I GnRH receptor or marmoset Type II GnRH receptor, along with myc-tagged ERK2, JNK and p38α constructs were performed using Superfect (Qiagen) according to the manufacturer's protocol. All assays described were performed 48 h post transfection.
(§2) Phospho-MAP kinase assay. […] After ligand stimulation, COS-7 cells were prepared for immunoprecipitation (23). Co-transfected myc-tagged MAP kinase constructs were immunoprecipitated from cell lysates by overnight incubation with myc-agarose slurry (Santa Cruz), washed, an equal volume of 2×Laemmli sample buffer added, resolved by SDS-PAGE and electrotransferred to PVDF membrane (NEN Life Sciences). Activated MAP kinase was detected using anti-phospho-ERK/JNK/p38a-kinase specific antisera (New England Biolabs), visualised by enzyme-linked chemifluorescence (Amersham-Pharmacia) and quantified using a phosphorimager. The degree of phosphorylated MAP kinase was normalised to the amount of unphosphorylated MAP kinase detected with specific antisera.

[2] = tested on: FSH and LH secretion; assay: Stimulation of LH and FSH in sheep (Soay ram model); type: in vivo; details: 10 μg dose, intravenous bolus, n=8
Protocol: Stimulation of LH and FSH in sheep. […] The same animals (n=8) were used on the two occasions. The GnRHs were administered at doses of 250 ng/ram and 10 μg/ram in a cross-over design with a week between treatments to permit full recovery. The peptides were dissolved in 1 ml of 0.9% saline and given as an intravenous bolus. Blood samples were collected every 10 min, from 20 min before, until 2 h after the treatments and assayed by specific radioimmunoassays (24). The FSH and LH responses to the GnRH agonists were calculated as delta responses (2 h mean hormone concentration post treatment minus 20 min mean pre-treatment hormone concentration). […] This was assessed for each animal and then for the group (mean±SEM, n=8), under both LD and SD.

[3] = biological target: T2, human Type I GnRH receptor (Homo sapiens, UniProt P30968); assay: Receptor binding, competition with 125I-[His5,D-Tyr6]GnRH, transfected COS-7 cells; details: for IC50: Table 1, s.e.m., n=3-6, read-out: Ligand binding (IC50) Human Type I
T2 construct: expressed in transfected cells; host or cells: COS-7 cells, transient transfection (Superfect)
T2 sequence (P30968 1-328): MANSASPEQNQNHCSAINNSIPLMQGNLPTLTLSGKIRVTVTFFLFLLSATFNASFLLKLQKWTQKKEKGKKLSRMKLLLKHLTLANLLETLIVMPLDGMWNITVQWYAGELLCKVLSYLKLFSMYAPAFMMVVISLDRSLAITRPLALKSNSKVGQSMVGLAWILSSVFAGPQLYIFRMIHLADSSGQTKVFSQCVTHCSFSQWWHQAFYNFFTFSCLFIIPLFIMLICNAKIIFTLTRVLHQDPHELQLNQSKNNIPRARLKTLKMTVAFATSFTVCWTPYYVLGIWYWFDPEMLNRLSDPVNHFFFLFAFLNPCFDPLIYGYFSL
Protocol: as §1
(§3) Receptor binding and inositol phosphate production.

[4] = biological target: T3, Marmoset Type II GnRH-R (Callithrix jacchus, UniProt Q95MG6); assay: as above; details: for IC50: s.e.m.
T3 construct: Full length marmoset Type II GnRH receptor was produced by PCR; expressed in transfected cells; host or cells: COS-7 cells, transient transfection (Superfect), plasmid pcDNA3.1+
T3 sequence (Q95MG6 1-380): T1 sequence (Q95MG6 1-380)
Protocol: as §1, §3

[5] = tested on: Marmoset Type II GnRH-R; assay: as above; details: Type II versus Type I receptor; for Selectivity of the Type II receptor for the ligand (in words): binding, COS-7 cells
Protocol: as §1, §3

[6] = biological target: T2, human Type I GnRH receptor; assay: Total inositol phosphate production in transfected COS-7 cells; type: cell-based; details: for EC50: Table 1, s.e.m., n=3-6, read-out: InsP production (EC50) Human Type I
Protocol: as §1, §3

[7] = biological target: T3, Marmoset Type II GnRH-R; assay: as above; type: cell-based; details: for EC50: s.e.m.
Protocol: as §1, §3

[8] = tested on: Type I receptor; details: cited from earlier work
[9] = biological target: T2, human Type I GnRH receptor; assay: Phospho-MAP kinase assay, ERK2 activation in transfected COS-7 cells; type: cell-based; details: FIG. 8a
Protocol: as §1, §2

[10] = FIG. 4, COS-7 cells, n=2, read-out: IC50, heterologous competition binding of 125I-[His5,D-Tyr6]GnRH
[11] = Table 1, n=3-6, read-out: Ligand binding (IC50) Marmoset Type II
[12] = FIG. 5, COS-7 cells, n=2, read-out: EC50, total inositol phosphate production
[13] = Table 1, n=3-6, read-out: InsP production (EC50) Marmoset Type II

Activation of p38α MAP kinase (in words) [1]	Receptor binding activity as percent of mammalian GnRH I at the Type I receptor ([3]; COS-7 cells)	Receptor binding activity relative to mammalian GnRH I at the Type II receptor ([4]; COS-7 cells)	IC50 [4, 10]	IC50 [4, 11]	Inositol phosphate production activity as percent of mammalian GnRH I at the Type I receptor ([6]; COS-7 cells)	Inositol phosphate production activity relative to mammalian GnRH I at the Type II receptor ([7]; COS-7 cells)	EC50 [7, 12]	EC50 [7, 13]	Activation of ERK2 (in words) [9]	IC50 [3]	EC50 [6]	SMILES	Mean ratio of FSH to LH secretion relative to that induced by mammalian GnRH I ([2]; sexually active rams)	Mean ratio of FSH to LH secretion relative to that induced by mammalian GnRH I ([2]; sexually quiescent rams)	Affinity for the Type II receptor relative to the Type I receptor [5]	Selectivity of the Type II receptor for the ligand (in words) [5]	Affinity and potency as percent of mammalian GnRH I at the Type I receptor [8]
selective and time-dependent activation	10%	40 fold	1.3 ± 0.2 nM	1.07 ± 0.04 nM	9%	90 fold	0.46 ± 0.12 nM	0.45 ± 0.05 nM	–	–	–	NC(=O)CNC(=O)[C@@H]1CCCN1C(=O)[C@H](Cc1ccc(O)cc1)NC(=O)[C@H](Cc1c[nH]c2ccccc12)NC(=O)CNC(=O)[C@H](Cc1c[nH]cn1)NC(=O)[C@H](CO)NC(=O)[C@H](Cc1c[nH]c2ccccc12)NC(=O)[C@H](Cc1c[nH]cn1)NC(=O)[C@@H]1CCC(=O)N1 [GnRH II, [His^5,Trp^7,Tyr^8]GnRH I] ([pGlu]HWSHGWYPG-NH2; C-terminus assumed)	2.14±0.29 times	2.02±0.34 times	24 fold	high selectivity	≤ 20%
–	–	–	51.7 ± 1.9 nM	42.6 ± 3.19 nM	–	–	33.2 ± 6.3 nM	40.5 ± 4.43 nM	considerably more potent than GnRH II	–	–	CC(C)C[C@H](NC(=O)CNC(=O)[C@H](Cc1ccc(O)cc1)NC(=O)[C@H](CO)NC(=O)[C@H](Cc1c[nH]c2ccccc12)NC(=O)[C@H](Cc1c[nH]cn1)NC(=O)[C@@H]1CCC(=O)N1)C(=O)N[C@@H](CCCNC(=N)N)C(=O)N1CCC[C@H]1C(=O)NCC(N)=O [GnRH I]	–	–	–	–	–
–	–	–	–	3.34 ± 0.06 nM	–	–	1.1 ± 0.23 nM	2.39 ± 0.64 nM	–	11.9 ± 0.35 nM	3.8 ± 0.71 nM	N=C(N)NCCC[C@@H](NC(=O)[C@H](Cc1c[nH]cn1)NC(=O)[C@H](CO)NC(=O)[C@H](Cc1c[nH]c2ccccc12)NC(=O)[C@H](Cc1c[nH]cn1)NC(=O)[C@@H]1CCC(=O)N1)C(=O)N[C@@H](Cc1c[nH]c2ccccc12)C(=O)N[C@@H](Cc1ccc(O)cc1)C(=O)N1CCC[C@H]1C(=O)NCC(N)=O [[D-Arg^6] GnRH II, [D-Arg^6]GnRH II] ([pGlu]HWSH[dR]WYPG-NH2; C-terminus assumed)	–	–	–	more selective	–
–	–	–	9.8 ± 1.4 nM	9.48 ± 2.17 nM	–	–	8.7 ± 0.5 nM	5.99 ± 0.91 nM	–	244 ± 23.6 nM	9.62 ± 3.5 nM	CC(C)C[C@H](NC(=O)[C@H](Cc1c[nH]c2ccccc12)NC(=O)CNC(=O)[C@H](Cc1ccc(O)cc1)NC(=O)[C@H](CO)NC(=O)[C@H](Cc1c[nH]c2ccccc12)NC(=O)[C@H](Cc1c[nH]cn1)NC(=O)[C@@H]1CCC(=O)N1)C(=O)N1CCC[C@H]1C(=O)NCC(N)=O [sGnRH, [Trp^7,Leu^8]GnRH I] ([pGlu]HWSYGWLPG-NH2; C-terminus assumed)	–	–	–	more selective	–
